Measurements from patent US8187821B2, “Compositions and methods for the modulation of PGRMC1” (University of Utah Research Foundation, priority 2008, dated 2012).
pKd: −log10 of the molar value. Where two headings read alike, the source gives them in different places.

What was measured:
[1] = PGRMC1 binding assay control: non-specific [^3H] ligand association with membranes from untransformed bacteria (−PGRMC1); design: species or system E. coli; conditions: for Q1 / Q2: two binding site model; for Q1: number of non-specific sites; for Q2: number of specific sites
Procedure: (§1) IPTG-induced cells were harvested by centrifugation (5,000 rpm; 5 min) and washed with ice-cold H2O. The pellet was resuspended in 5 mL buffer A (50 mM Tris-HCl pH 7.5, 150 mM NaCl, 0.1% NP40, and 10% glycerol) with 5-10 mg lysozyme, and incubated on ice for 30 min. The cells were then disrupted by three bursts of sonication (45 sec) at high intensity with a 45 sec cooling period between bursts. Soluble material was removed by centrifugation (15,000 rpm, 10 min) and the pellet resuspended in 5 mL buffer A. His10-PGRMC1 (His10 disclosed as SEQ ID NO: 14) was confirmed to be present in purified membranes by SDS-PAGE followed by Coomassie stain and western blot using anti-tetra-His (SEQ ID NO: 15) antibody (Qiagen). Total protein in the His10-PGRMC1 (His10 disclosed as SEQ ID NO: 14) transformed and untransformed purified membranes was determined by the Bradford method and membranes were normalized to 10 μg/μL total protein (diluted with buffer A). Purified membranes were then aliquoted and stored frozen until use.
(§2) The standard 10 μL binding reaction contained 10 μp purified membranes (total protein) and 10 μM [^3H] progesterone or [^3H] cholesterol (3,000-5,000 cpm) in buffer A: 20% ethanol. Stock solutions (100 μM) of [^3H] cholesterol and [^3H] progesterone containing ˜4×10^4 cpm/μL, were prepared in 95% ethanol. Reactions were prepared in clear 2.0 mL microcentrifuge tubes on ice. To start the reaction, the microfuge tube was briefly mixed (vortex) and placed at 37° C. Following a 10 to 30 min incubation, the tubes were centrifuged in a microfuge (˜13,000 rpm) for 2 min. The supernatant was carefully removed and the pellet was washed with an additional 10 μL water. After a second round of centrifugation (2 min; 13,000 rpm), the resulting supernatant was combined with the first and the pellet was resuspended in 20 μL H2O, Scintillation fluid (700 μL Wallac Optiflour) was added to each fraction and the fractions were mixed extensively. The fractions were then counted in a multi-well scintillation counter (Wallac Microbeta Triluxmax, Waltham, Mass.) for 30 seconds each. Binding are reported as μ/moles of ligand bound per mg of membrane protein. His10-PGRMC1 (His10 disclosed as SEQ ID NO: 14)-specific binding is reported as the difference in binding between transformed and untransformed bacteria. Experimental deviations from the standard assay conditions are noted in individual figure legends.
(§3) In order to better understand PGRMC1's biological function and to study ligand binding, an in vitro binding assay was developed. E. coli BL21 codon plus (RIPL) cells were transformed with a vector encoding PGRMC1 that was epitope tagged with 10 histidine (SEQ ID NO: 14) residues at the NH2-terminus. Untransformed BL21 cells were used as the control. A purification procedure was performed to remove soluble proteins and cell components from the transformed (+PGRMC1) and untransformed (−PGRMC1) bacterial membranes. The resulting purified membranes were confirmed for the presence and absence of His10-PGRMC1 (His10 disclosed as SEQ ID NO: 14) respectively by Coomassie stain and western blot using anti-His antibody. The membranes with [^3H] progesterone or [^3H] cholesterol were then incubated. The membranes were spun out, washed, and counted in a scintillation counter. His10-PGRMC1 (His10 disclosed as SEQ ID NO: 14) specific binding was then determined by subtracting total membrane-associated ligand (nmols/mg protein) in membranes prepared from untransformed bacteria (−PGRMC1) with membranes purified from bacteria expressing His10-PGRMC1 (His10 disclosed as SEQ ID NO: 14) (+PGRMC1).
To further explore the nature of ligand binding to His10-PGRMC1 (His10 disclosed as SEQ ID NO: 14), several in silico modeling experiments fitting the saturation data to different models of ligand binding were performed. The best statistical fit of the data was to a two binding site model. […]

His10-PGRMC1 = molecular target: T1, His10-PGRMC1 (Homo sapiens, UniProt O00264); assay: PGRMC1 binding assay: [^3H] ligand binding to purified bacterial membranes expressing His10-PGRMC1 (+PGRMC1); conditions: for Membrane-Associated [^3H] Ligand / pKd / Q1 / Q2: +PGRMC1 membranes; for Membrane-Associated [^3H] Ligand, Specific: Specific (+PGRMC1 minus −PGRMC1); for saturability of specific binding: ligand concentration spanning four orders of magnitude, FIG. 8; for His10-PGRMC1 specific binding with proteolyzed membranes: membranes trypsin-treated prior to ligand binding; for ligand bound at saturation/equilibrium in time course: 37° C; for ligand bound at saturation/equilibrium in time course / time to reach saturation/equilibrium of binding: FIG. 5, time course; for Q1: number of non-specific sites; for Q2: number of specific sites
T1 construct: a product containing the full length coding region of PGMRC1 flanked by Nde1 and BamHI restriction sites; made in house; host or cells: E. coli BL21 (DE3) / BL21 codon plus (RIPL); purified bacterial membranes
Procedure: For bacterial expression, BL21 (DE3) cells (Stratagene, LaJolla, Calif.) were transformed with pET-16b:PGRMC1 and plated on LB agar plates containing ampicillin (amp). One to 7 days later, individual colonies were harvested and used to inoculate small volume (5-200 mL) liquid cultures of LB-amp media. Cultures were grown with shaking at 37° C. until early log phase (OD600=0.6). IPTG was added to a final concentration of […] and the cultures were incubated for another 4 hours at 37° C. or overnight at room temperature. His10-PGRMC1 (His10 disclosed as SEQ ID NO: 14) expression was confirmed by SDS-PAGE followed by Coomassie stain and western blot using mouse monoclonal anti-tetra-His (SEQ ID NO: 15) antibody (Qiagen, Valencia, Calif.).
as §1, §2
as §3, with “The membranes were spun out, washed, and counted in a scintillation counter. His10-PGRMC1 (His10 disclosed as SEQ ID NO: 14) specific binding was then determined by subtracting total membrane-associated ligand (nmols/mg protein) in membranes prepared from untransformed bacteria (−PGRMC1) with membranes purified from bacteria expressing His10-PGRMC1 (His10 disclosed as SEQ ID NO: 14) (+PGRMC1).” left out

[2] = first category of sites, present in both +PGRMC1 and −PGRMC1 membranes, read-out: Kd of non-specific binding
[3] = two binding site model fit of saturation data, −PGRMC1 membranes, non-specific site, read-out: Kd1
[4] = Protease + (trypsin before ligand binding)
[5] = two binding site model fit of saturation data, non-specific site, read-out: Kd1
[6] = two binding site model, specific site, read-out: Kd2

T1 sequence (O00264 whole entry): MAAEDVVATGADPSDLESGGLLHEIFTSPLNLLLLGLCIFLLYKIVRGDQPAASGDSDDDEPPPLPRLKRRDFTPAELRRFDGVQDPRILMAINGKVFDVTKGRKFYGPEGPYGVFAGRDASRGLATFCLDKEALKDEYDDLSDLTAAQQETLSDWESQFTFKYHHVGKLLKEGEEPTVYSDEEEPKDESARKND

SMILES | pKd [1, 2] | pKd [1, 3] | Q1 ([1]; −PGRMC1 membranes) | Q2 ([1]; −PGRMC1 membranes) | Membrane-Associated [^3H] Ligand ([1]; −PGRMC1 membranes, Protease −) | Membrane-Associated [^3H] Ligand (His10-PGRMC1; [4]) | Membrane-Associated [^3H] Ligand (His10-PGRMC1; Protease −) | Membrane-Associated [^3H] Ligand, Specific (His10-PGRMC1; Protease +) | Membrane-Associated [^3H] Ligand, Specific (His10-PGRMC1; Protease −) | saturability of specific binding (His10-PGRMC1) | His10-PGRMC1 specific binding with proteolyzed membranes (His10-PGRMC1) | ligand bound at saturation/equilibrium in time course (His10-PGRMC1) | time to reach saturation/equilibrium of binding (His10-PGRMC1) | pKd (His10-PGRMC1; [5]) | Q1 (His10-PGRMC1; two binding site model) | pKd (His10-PGRMC1; [6]) | other results
CC(C)CCC[C@@H](C)[C@H]1CC[C@H]2[C@@H]3CC=C4C[C@@H](O)CC[C@]4(C)[C@H]3CC[C@]12C [Cholesterol, cholesterol] | ~3.00 | 3.05 | 8.4 × 10^9 Sites | 0 Sites | 3.7 ± 0.3 nmoles/mg protein | 2.6 ± 0.2 nmoles/mg protein | 5.2 ± 0.3 nmoles/mg protein | 0.0 ± 0.2 nmoles/mg protein | 1.5 ± 0.2 nmoles/mg protein | did not appear to be saturable | complete loss | ~2 nmoles/mg protein | approximately the same rate as progesterone | 3.00 | 9.6 × 10^9 Sites | 9.46 | cholesterol binding relative to progesterone binding (His10-PGRMC1; higher at every time point of the time course): 2-3 fold; Kd of cholesterol relative to progesterone (fold lower) (His10-PGRMC1; specific site, two binding site model): 15 fold
CC(=O)[C@H]1CC[C@H]2[C@@H]3CCC4=CC(=O)CC[C@]4(C)[C@H]3CC[C@]12C [Progesterone, progesterone] | ~3.00 | 2.77 | 8.4 × 10^9 Sites | 0 Sites | 2.4 ± 0.1 nmoles/mg protein | 1.6 ± 0.3 nmoles/mg protein | 3.1 ± 0.3 nmoles/mg protein | 0.0 ± 0.1 nmoles/mg protein | 0.7 ± 0.2 nmoles/mg protein | appeared to be saturable | complete loss | approximately 0.5 nmoles/mg protein | 15 to 30 min | 3.00 | 8.0 × 10^9 Sites | 8.26 | Membrane-Associated [^3H] Ligand ([1]; −PGRMC1 membranes, Protease + (trypsin before ligand binding)): 1.6 ± 0.2 nmoles/mg protein; ligand concentration at half-maximal specific binding (His10-PGRMC1; saturation experiment, FIG. 8A): approximately 50 μM; Q2 (His10-PGRMC1; two binding site model): 19,260 Sites; Q2 (His10-PGRMC1; two binding site model, listed as progesterone): approximately 20,000 Sites
